Laboratory results: US20190083521A1, “COMBINATION THERAPY FOR TREATING CANCER” (Epizyme, Inc., priority 2014, published 2019)

tested on: MOLM-13 (MLL-AF9) cells; assay: Combination proliferation assay with Compound A2 (CellTiter-Glo, Chou-Talalay CI); assay type: cell-based, human; settings: MOLM13; 7 Day Cotreatment Model
Protocol: The acute myelogenous leukemia cell lines MV4-11 (MLL-AF4) and MOLM-13 (MLL-AF9) were obtained from American Type Culture Collection (ATCC; Rockville, Md.) and Deutsche Sammlung von Mikroorganismen and Zellkulturen (DSMZ; Braunschweig, Germany) respectively.
(§1) Studies were performed using MLL-rearranged cell lines in vitro to evaluate the anti-proliferative effect of a combination of two agents together on cell growth. Initial proliferation studies were performed to determine the IC50 of a given compound in each cell line. The cell counts were measured by ATP quantitation using the Promega Cell Titer Glo kit and luminescence values corresponded to the amount of ATP in a given well.
Compounds were evaluated for synergy in the co-treatment phase by testing the compounds in a concentration range which was bracketed around their IC50 values. The compounds were plated to a 96 well plate in a matrix format (FIG. 3) which includes increasing concentrations of each drug in the combination in a constant ratio, in addition to the effect of each compound alone in the study. Cells were seeded and grown in the log-linear phase for 3 or 7 days in the co-treatment phase. Minimum inhibition (DMSO alone) controls were used in each plate to calculate fraction affected (Fa) of a test well. DMSO concentration was kept at 0.1% v/v.
The drug combination analysis was performed utilizing the Chou-Talalay method Synergy was determined using the software package Calcusyn by Biosoft. The combination index (CI) is a quantitative term used to describe the level of synergy or antagonism in a given test system. A combination index less than one indicates synergy, and a CI greater than one indicates antagonism. Further, strong synergism is achieved when the CI value falls below 0.3.
The HP-D300 digital dispenser (Tecan) was used to dispense compounds in a combinatorial matrix. […] Cell viability was measured via ATP content using CellTiter-Glo® (Promega).
Viability was determined using CellTiter-Glo® (Promega).
Cell viability was measured via ATP content using CellTiter-Glo® (Promega).
as §1, with “Proliferation studies” for “Studies”, “MOLM-13, MV4-11 and SKM-1” for “MLL-rearranged”, “cancer cell killing” for “anti-proliferative”, “IC50 values” for “IC50”, “correspond” for “corresponded”
These studies were performed to evaluate both the combinatorial effect of compounds on cell killing and the durability of the effect by washing out one of the agents.
Compounds evaluated for synergy in the co-treatment phase were tested in a range which was bracketed around the IC50's. The compounds were plated to a 96 well plate in a matrix format which includes increasing concentrations of each drug in the combination in a constant ratio, in addition to the effect of each compound alone in the study. Cells were seeded and grown in the log-linear phase for 3 or 7 days in the cotreatment phase. Maximum and minimum inhibition (DMSO alone) controls were used in each plate to calculate fraction affected (Fa) of a test well. DMSO concentration was kept at 0.1% v/v. The drug combination analysis was performed utilizing the Chou-Talalay method. Synergy was determined using the software package Calcusyn by Biosoft. The combination index (CI) is the term used to describe the level of synergy or antagonism in a given test system. A combination index less than one indicates synergy, and a CI greater than one indicates antagonism.
The drug combination analysis was performed using the Chou-Talalay method. Graphs representing values of combination index (CI) versus Fractional effect (Fa) known as Fa-CI plots were generated and synergy was evaluated.

SMILES	Combination effect with Compound A2 (Table 5)
O=C(Nc1ccncc1)c1cc([N+](=O)[O-])ccc1Cl [Compound T0070907]	Additive (additive effect by CI equal to 1)
Cn1c(=O)n(-c2ccc(C(C)(C)C#N)cc2)c2c3cc(-c4cnc5ccccc5c4)ccc3ncc21 [BEZ235]	Additive (additive effect by CI equal to 1)
C[C@@H]1COCCN1c1cc(C2(S(C)(=O)=O)CC2)nc(-c2cccc3[nH]ccc23)n1 [AZ20]	Synergy (Drug synergy was statistically defined by CI values less than 1)

same assay, conditions: MOLM-13 (MLL-AF9); 7 Day Cotreatment Model

SMILES	Combination effect with Compound A2 (Table 4)
CC(C)C[C@H](NC(=O)[C@H](Cc1ccccc1)NC(=O)c1cnccn1)B(O)O [Velcade, bortezomib]	Combination Benefit
S=c1nc[nH]c2nc[nH]c12 [Mercaptopurine]	Additive--> Synergy
Nc1cccc2c1CN(C1CCC(=O)NC1=O)C2=O (stereo not drawn) [Lenalidomide]	Combination Benefit
O=C(CCCCCCC(=O)Nc1ccccc1)NO [Vorinostat]	Additive/Synergy
CC1(C)CCC(CN2CCN(c3ccc(C(=O)NS(=O)(=O)c4ccc(NCC5CCOCC5)c([N+](=O)[O-])c4)c(Oc4cnc5[nH]ccc5c4)c3)CC2)=C(c2ccc(Cl)cc2)C1 [ABT-199]	Additive--> Synergy

tested on: SKM-1 cells; assay: Example 6 combination screen: 300 nM EPZ-5676 pre-treatment, second compound 72 h, ATPLite, IC50 shift; assay type: cell-based, human; settings: SKM-1 cells; 300 nM EPZ-5676 pre-treatment (4 + 3 days) vs DMSO, then 2nd compound 72 h; ATPLite; IC50 shift of 2nd compound
Protocol: Cells were then equilibrated in incubators for 24 hours before treatment with a second compound. Treated assay plates were incubated with a second compound for 72 hours. After this time, plates were developed for endpoint analysis using ATPLite to measure ATP content, which is used as an indicator of cell viability.
“N/D” means that IC50 of the second compound could not be determined for both conditions.

SMILES	Summary of Combination Studies: SKM-1
CN(C)C(=O)c1cc2cnc(Nc3ccc(N4CCNCC4)cn3)nc2n1C1CCCC1 [LEE011]	Synergy (considered synergistic if the IC50 value of the second compound decreased by 2-fold or more when EPZ-5676 was added as compared to the DMSO control)
COc1ccc(-c2ccc3c(N4CCOC[C@@H]4C)nc(N4CCOC[C@@H]4C)nc3n2)cc1CO [AZD 8055]	Synergy (considered synergistic if the IC50 value of the second compound decreased by 2-fold or more when EPZ-5676 was added as compared to the DMSO control)
C=C(c1ccc(C(=O)O)cc1)c1cc2c(cc1C)C(C)(C)CCC2(C)C [Bexarotene]	Synergy (considered synergistic if the IC50 value of the second compound decreased by 2-fold or more when EPZ-5676 was added as compared to the DMSO control)
CC(C)C[C@H](NC(=O)CNC(=O)c1cc(Cl)ccc1Cl)B(O)O [MLN2238]	Synergy (considered synergistic if the IC50 value of the second compound decreased by 2-fold or more when EPZ-5676 was added as compared to the DMSO control)
C[C@H]1C[C@@H]2[C@H]([C@@H](O)C[C@@]3(C)[C@H]2CC[C@]3(O)C(=O)CO)[C@@]2(C)C=CC(=O)C=C12 [Methylprednisolone]	Synergy (considered synergistic if the IC50 value of the second compound decreased by 2-fold or more when EPZ-5676 was added as compared to the DMSO control)
CN(C)CC[C@H](CSc1ccccc1)Nc1ccc(S(=O)(=O)NC(=O)c2ccc(N3CCN(Cc4ccccc4-c4ccc(Cl)cc4)CC3)cc2)cc1[N+](=O)[O-] [ABT-737]	Synergy (considered synergistic if the IC50 value of the second compound decreased by 2-fold or more when EPZ-5676 was added as compared to the DMSO control)
COc1ccc(CCc2nc3cc(-c4c(C)noc4C)ccc3n2C[C@H](C)N2CCOCC2)cc1Cl [SGC-CBP30]	Synergy (considered synergistic if the IC50 value of the second compound decreased by 2-fold or more when EPZ-5676 was added as compared to the DMSO control)
CS(=O)(=O)N1CCN(Cc2cc3nc(-c4cccc5[nH]ncc45)nc(N4CCOCC4)c3s2)CC1 [GDC-0941]	Synergy (considered synergistic if the IC50 value of the second compound decreased by 2-fold or more when EPZ-5676 was added as compared to the DMSO control)
N#Cc1c(C2CCNCC2)cc(-c2c(O)cccc2OCC2CC2)nc1N [IKK-2 Inhibitor VIII]	Synergy (considered synergistic if the IC50 value of the second compound decreased by 2-fold or more when EPZ-5676 was added as compared to the DMSO control)
CCN(CC)CCNC(=O)c1c(C)[nH]c(/C=C2\C(=O)Nc3ccc(F)cc32)c1C [Sunitinib Malate]	2.0
